“Also recorded” adds a separate entry of the source.
Tests used:
human platelets [1] = assay: Ca2+ mobilization (FLIPR), human platelets; format: cell-based; conditions: thrombin or A23187
Experimental: Ca^2+ mobilization was measured as described previously. WT control and Ero1α-null platelets (1×10^8/mL) were suspended in HEPES-Tyrode buffer, pH 7.4. Cells were incubated with a Ca^2+ dye (FLIPR Ca^2+5 assay kit; Molecular Devices) for 30 minutes at 37° C. in the dark, followed by stimulation with thrombin (0.1 U/mL), A23187 (2 μM) or thapsigargin (10-20 μM). After measuring Ca^2+ release, 1 mM CaCl2) was immediately added to assess Ca^2+ influx. In other experiments, Ca^2+ dye-labeled human and WT mouse platelets were incubated with a vehicle or an inhibitor for 10 minutes at 37° C. Cytosolic Ca^2+ levels were measured using a FlexStation3 microplate reader with an excitation wavelength of 485 nm and an emission wavelength of 525 nm. Ca^2+ mobilization was quantified by the area under the curve and expressed as a relative fluorescence unit.

human platelets [2] = assay: Flow cytometry of P-selectin exposure and αIIbβ3 integrin activation, human platelets; format: cell-based; conditions: 3 to 10 μM, human platelets, thrombin or CRP
From the text: FIG. 18(A-R) is an exemplary embodiment of novel small-molecule inhibitors recapitulating the defect in Ero1α (endoplasmic reticulum oxidoreductase 1a)-null platelets in accordance with the present disclosure. FIG. 18A: The structure of B12 and its inhibitory effect on ERO1α activity. FIG. 18(B-E): The inhibitory effect of B12 on P-selectin exposure and αIIbβ3 integrin activation in (FIG. 18B and FIG. 18C) mouse and (FIG. 18D and FIG. 18E) human platelets. FIG. 18F: The structure of B12-5 and its inhibitory effect on ERO1α activity. FIG. 18G: A docking model of B12-5-ERO1α (3AHQ) and flavin adenine dinucleotide (FAD)-ERO1α complex. There are pi-sulfur interactions of the phenothiazine head group (B112-5) or a tricyclic ring (FAD) with Met389 and Cys397. Also, there are H bond interactions between the tail/alkyl group and His255, Asn259, and Arg287. […] After incubation with a different concentration of B12-5, the specific interaction between B12-5 and ERO1α was measured by subtracting the nonspecific binding. The KD value was calculated from the Kon and Koff values. […] P values determined by ANOVA and Dunnett test (FIG. 18(B-E), FIG. 18(1-L), and FIG. 18(O-R) [for B12-5]) or Student t test (FIG. 18M, FIG. 18N, and FIG. 18(O-R) [for BAPTA (1,2-bis(o-aminophenoxy)ethane-N,N,N′,N′-tetraacetic acid)]). […]

[3] = H2O2 (antioxidant) activity assay; format: biochemical
From the text: FIG. 17(A-F) is an exemplary embodiment of identification of novel ERO1α inhibitors by high throughput screening in accordance with the present disclosure. FIG. 17A: A scheme of an ERO1α activity assay. FIG. 17B: Screening of chemical libraries in the ERO1α activity assay. FIG. 17C: The inhibitory effect of selected compounds on ERO1α activity. FIG. 17D: The inhibitory effect of selected compounds on PDI activity. FIG. 17E: The inhibitory effect of selected compounds on H2O2 activity. FIG. 17F: The inhibitory effect of selected compounds on thiol-reacting activity. The data represent the mean±SD (n=3). *P<0.05, **P<0.01, ***P<0.001, and ****P<0.0001 vs. vehicle control, Student's t-test.
To identify a novel ERO1α inhibitor, 5800 compounds were screened using an ERO1α activity assay (FIG. 17A and FIG. 17B). […] The selected compounds were further tested in assays measuring PDI, antioxidant, and thiol-reacting activities (FIG. 17D through FIG. 17F). […] B12 inhibited P-selectin exposure and αIIbβ3 activation in agonist-activated mouse and human platelets in a concentration-dependent manner (FIG. 18B through FIG. 18E).

ERO1α = target: T1, ERO1α (Homo sapiens, UniProt Q96HE7); conditions: from studies; cited from earlier work
T1 sequence (Q96HE7 24-468): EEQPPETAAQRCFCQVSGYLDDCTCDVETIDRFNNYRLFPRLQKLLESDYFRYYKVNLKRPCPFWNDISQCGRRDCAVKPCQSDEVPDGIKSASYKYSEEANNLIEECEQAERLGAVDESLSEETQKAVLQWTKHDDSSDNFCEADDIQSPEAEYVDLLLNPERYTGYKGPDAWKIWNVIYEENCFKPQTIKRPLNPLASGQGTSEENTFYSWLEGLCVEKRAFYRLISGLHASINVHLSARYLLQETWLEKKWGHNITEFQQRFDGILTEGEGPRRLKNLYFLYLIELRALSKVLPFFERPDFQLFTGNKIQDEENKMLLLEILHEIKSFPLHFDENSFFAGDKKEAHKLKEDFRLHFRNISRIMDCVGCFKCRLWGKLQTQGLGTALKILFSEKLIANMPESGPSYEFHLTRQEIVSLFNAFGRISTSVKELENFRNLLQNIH

Compound	Ca2+ release and influx (human platelets [1])	P-selectin exposure and αIIbβ3 activation (human platelets [2])	H2O2 inhibition at 100 μM (%) ([3]; 100 μM)	effect on H2O2 (antioxidant) activity ([3]; at or up to 100 μM)	IC50 (ERO1α) [nM]
O=C(CSc1nc(O)cc(O)n1)N1c2ccccc2Sc2ccccc21 [B12-5]	dose dependently inhibited	significantly reduced	6.6 ± 2	minimal effect; also recorded: did not affect	
O=C(O)c1cc(N2N=C(C(F)(F)F)/C(=C/c3ccc(-c4ccccc4)o3)C2=O)ccc1Cl [EN460]					1900
